From paper PMC5595280, “Cytotoxicity and anti-tumor effects of new ruthenium complexes on triple negative breast cancer cells” (PLoS ONE, 2017)

Legend:
Assay type in all cases: cell-based, human
[1] = tested on: Bax, Caspase-3 and Bcl-2 gene expression in MDA-MB-231 cells; assay: RT-qPCR of apoptosis related genes; details: 40 μM, 3 h
Description: MDA-MB-231 cells (1.0 x 10^6/plate) were incubated for 3 h with (20 and 40 μM) or without (control) the complex (4) in Petri dishes (6 cm) at 37°C in a humidified incubator with 5% CO2. Total RNA was extracted using Trizol reagent (Invitrogen). cDNAs were synthesized using Enhanced Avian RT First Strand Synthesis kit (Sigma-Aldrich, St. Louis, MO, USA). A Rotor-Gene 6000 real-time rotary analyzer (Corbett Life Science, Australia) was used to amplify both target and internal control templates (1 cycle at 95°C for 5 min and 40 amplification cycles at 95°C for 30 sec, 55°C for 30sec and 72°C for 45sec). In brief, 1 μL of reverse transcribed product template, 5 μL of SYBR Green JumpStart Taq ReadyMix (Sigma-Aldrich) and the gene-specific primer pairs at a final concentration of 500 nmol l^-1 for each primer, made 10 μL of reaction system. Primers used in the assays were: Caspase-3 (Forward: 5’GTG CTA CAA TGC CCC TGG AT3’; Reverse: 5’GCCCATTCATTTATTGCTTTC C3’), Bax (Forward: 5’CAT CCA GGA TCG AGC AGG3’; Reverse: 5’CGA TGC GCT TGA GAC ACT C3), Bcl-2 (Forward: 5’GGT GGG AGG GAG GAA GAA T3’; Reverse: 5’GCA GAG GCA TCA CAT CGA C3’) and β-actin (Forward: 5’GACGGCCAGGTCATCACCATT G3’; Reverse: 5’AGCACTGTGTTGGCGTACAGG 3’). Bax primers (NM_001291428.1) and Bcl-2 (NM_000633.2) were designed with Gene Runner available at http://generunner.net/ (version5.0.63 Beta), except for the primer Caspase-3 (NM_004346.3). For each gene, all samples were amplified simultaneously in duplicate in one assay run. The internal calibrator used as a basis to standardize the results of expression was the control group ΔCts average. Calibration was determined by ΔΔCt = ΔCt (sample) − ΔCt (calibrator). Gene expression was assessed by relative quantification, using the formula 2-ΔΔCt and β-actin as internal control. Data represent three assays in duplicate. A blank with water, primers and SYBR Green instead of template sample was performed.

MDA-MB-231 cells = assay: MTT cell proliferation assay; details: 24 h of incubation, read-out: IC50 ±SEM MDA-MB-231
Description: (§1) MDA-MB-231 human breast tumor cells and MCF7 human breast tumor cells, obtained from Rio de Janeiro Cell Bank, were maintained at 37°C in 5% CO2 in DMEM medium containing fetal bovine serum (FBS) 10% (Vitrocell). MCF-10A, a non-tumor breast cell line, obtained from Rio de Janeiro Cell Bank, was cultivated in DMEM/F12 medium containing horse serum (HS) 5%, EGF (0.02 mg/mL); hydrocortisone (0.05 mg/mL); cholera toxin (0.001 mg/mL) and insulin (0.01 mg/mL). Both media contained penicillin (100 UI/mL), streptomycin ([…]) and L-glutamine (2 mM).
(§2) Proliferation assays were performed as described earlier. Briefly, cells lines were prepared in a concentration of 1x10^4 cells/100 μL, in complete medium (with 10% FBS), and plated on sterile 96-well plates for 24 h. The culture medium was removed from the wells and a new one, supplemented with 10% FBS and containing different concentrations of (1) [Ru(SO4)(dppb)(bipy)] (2) [Ru(CO3)(dppb)(bipy)], (3), [Ru(C2O4)(dppb)(bipy)], or (4) [Ru(CH3CO2)(dppb)(bipy)]PF6, was added to the wells. Cells were incubated for 24 h under the same conditions as described above. Cell proliferation assay was performed in comparison with untreated control. After incubation, the culture medium of each well was removed and a solution containing MTT (1 mg/mL) was added (100 μL/well). The plates were then kept at 37°C for 4 h and the formed crystals were dissolved in DMSO. The absorbance was read on an ELISA plate reader at a wavelength of 540 nm. […] The selectivity index (SI) was calculated as the ratio IC50 (MCF-10A) / IC50 (MDA-MB-231).
(§3) Each experiment was repeated three times in triplicate and a standard error mean was calculated. Shapiro-Wilk’s test was used to verify data normality. As normal distribution was present, the results were compared statistically with a one-way or two-way analysis of variance (ANOVA). […] The data were analysed and IC50 calculations were made using Hill’s equation in the GraphPad Prism software (version 6.05).

MCF-7 cells = assay: MTT cell proliferation assay; details: 24 h of incubation, read-out: IC50 ±SEM MCF-7
Description: as §1, §2, §3

MCF-10A cells = assay: MTT cell proliferation assay; details: 24 h of incubation, read-out: IC50 ±SEM MCF-10A
Description: as §1, §2, §3

MMP-9 = assay: Gelatin zymography of wound healing supernatants; details: 24 h
Description: MDA-MB-231 cells (1.0 x 10^5/well) were seeded into 12-wells culture plates and cultured in a medium containing FBS 10% to near confluence (80%) of the cell monolayer. Monolayers were carefully wounded using a pipette tip, and any cellular debris present was removed by washing with PBS. The wounded monolayers were then incubated in serum-free medium containing 2.5, 5, 10 and 20 μM of complex (4) for 24 h. After this time, supernatants of the wound healing assay were collected and tested for MMP secretion as previously described. Briefly, equal amounts of total protein ([…]) were subjected to electrophoresis. Zymography gels consisted of 10% polyacrylamide impregnated with gelatin at a final concentration of 1% in the presence of sodium dodecyl sulfate (SDS) under non-reducing conditions. […] Gels were then stained with coomassie brilliant blue for 30 min and destained in methanol and acetic acid for 20 min. Gelatin degrading enzymes were visualized as clear white bands against a blue background, indicating proteolysis of the substrate protein. The molecular mass of gelatinolytic activities was determined by comparison to reference protein molecular mass marker PageRuler Prestained Protein Ladder (Thermo Fisher Scientific). Activity bands were identified following the previous description according to their molecular weights.

CC(=O)[O-].F[P-](F)(F)(F)(F)F.[Ru+2].c1ccc(-c2ccccn2)nc1.c1ccc(P(CCCCP(c2ccccc2)c2ccccc2)c2ccccc2)cc1 [Complex (4), [Ru(CH3CO2)(dppb)(bipy)]PF6]
Bax gene expression [1]: upregulated | Bcl-2 gene expression [1]: did not affect | Caspase-3 gene expression [1]: upregulated | IC50 (MDA-MB-231 cells): 31.16 ± 0.04 µM | IC50 (MCF-7 cells): > 200 µM | IC50 (MCF-10A cells): 48.89 ± 0.09 µM | inhibition of expression of MMP-9 compared to untreated control (MMP-9; 20 μM): 60% | effect on expression of MMP-9 (MMP-9; 2.5, 5 and 10 μM): did not inhibit the expression of MMP-9
